The test system of this assay is collagen induced platelet aggregation. Put plainly: In Vitro Inhibition of Platelet Aggregation (collagen induced, rabbit platelet-rich plasma). In kind it is cell-based. As to conditions: Oryctolagus cuniculus, 10 min; for inhibition at 60 µM: 6 × 10^^-5 mol./l.; for inhibition at 6 µM: 6 × 10^^-6 mol./l.; for inhibition at 600 µM: 6 × 10^^-4 mol./l. Here is the method:
The ability of the compounds of the present invention to inhibit platelet aggregation in vitro is measured according to the method of Born, et al., J. Physiol., 168, 178 (1963) and comprises the following procedure: Anesthetized male rabbits are bled from a carotid artery into plastic centrifuge tubes containing 0.1 volume 3% sodium citrate. Platelet-rich plasma is separated by centrifugation at 100 G for 10 minutes at 20° C. […] After 10 minutes of incubation with the platelet-rich plasma at room temperature, collagen, a protein known to cause platelet aggregation, is added (0.27 ml. collagen/4 ml. plasma) and changes in the optical density are followed with a Spectronic 20 colorimeter attached to a Houston Instrument TY Recorder. Platelet aggregation is indicated by a decrease in optical density. The relative potency of the compounds of the present invention are thus rated on their ability to inhibit (percent) collagen induced platelet aggregation.

Structures can show the parent of a compound that is named as a salt.

Molecule `CCN(CC)c1cc(-c2cccc(N)c2)ncn1` [Ar=3-NH2C6H4; R1=C2H5; R2=C2H5; R3=H, 4-Diethylamino-6-(m-aminophenyl)pyrimidine dihydrochloride] showed an inhibition at 60 µM of 67% and an inhibition at 6 µM of 41%.
On to `CCN(CC)c1cc(-c2cccc(NC(=O)OC)c2)ncn1`, for which the inhibition at 600 µM came out at 95% and 60 µM produced 11% inhibition.
Consider `c1ccc(-c2cc(N3CCOCC3)ncn2)cc1` [Ar=C6H5; R1,R2=--(CH2)2O(CH2)2--; R3=H, 4-(4-Morpholinyl)-6-phenylpyrimidine hydrochloride], for which the inhibition at 600 µM turned out to be 94%, the inhibition at 60 µM turned out to be 75% and 6 µM produced 37% inhibition.
The matching figures for `COc1ccc(-c2cc(N)ncn2)cc1` [Ar=4-CH3OC6H4; R1=H; R2=H; R3=H]: 72%, 24% and 3%.
The molecule `CCN(CCO)c1cc(-c2ccc(Cl)cc2)ncn1` [Ar=4-ClC6H4; R1=C2H5; R2=HO(CH2)2; R3=H] came in with an inhibition at 60 µM of 57% and an inhibition at 6 µM of 18%.
`CCNc1cc(-c2ccc(OC)cc2)ncn1` [Ar=4-CH3OC6H4; R1=H; R2=C2H5; R3=H]: 600 µM produced 92% inhibition, the inhibition at 60 µM came out at 64% and the inhibition at 6 µM was found to be 24%.
The matching figures for `CCCN(CCC)c1cc(-c2ccc(OC)cc2)ncn1`: 91%, 77% and 64%.
Molecule `O=[N+]([O-])c1cccc(-c2cc(N3CCCC3)ncn2)c1` [Ar=3-NO2C6H4; R1,R2=--(CH2)4--; R3=H] showed an inhibition at 600 µM of 94% and an inhibition at 60 µM of 25%.
`FC(F)(F)CNc1cc(-c2cccs2)ncn1` [Ar=2-thienyl; R1=CF3CH2; R2=H; R3=H] showed an inhibition at 60 µM of 81% and an inhibition at 6 µM of 14%.
The molecule `CCN(CC)c1cc(-c2cccc(NC(=S)NC)c2)ncn1` had an inhibition at 600 µM of 4.9%.
For the molecule `CCN(CC)c1cc(-c2cccs2)ncn1` [Ar=2-thienyl; R1=C2H5; R2=C2H5; R3=H, 4-diethylamino-6-(2-thienyl)pyrimidine], at 600 µM the inhibition was 94% and the inhibition at 6 µM worked out at 75%.
`CC(=O)Nc1cccc(-c2cc(N(C)C)ncn2)c1` [Ar=3-CH3CONHC6H4; R1=CH3; R2=CH3; R3=H] had an inhibition at 600 µM of 93% and an inhibition at 60 µM of 13%.
The molecule `CCNc1cc(-c2ccccc2)ncn1` [Ar=C6H5; R1=C2H5; R2=H; R3=H, 4-ethylamino-6-phenylpyrimidine] came in with an inhibition at 600 µM of 99%, an inhibition at 60 µM of 91% and an inhibition at 6 µM of 99%.
Molecule `CC(=O)Nc1cccc(-c2cc(N3CCCC3)ncn2)c1` [Ar=3-CH3CONHC6H4; R1,R2=--(CH2)4--; R3=H] returned an inhibition at 600 µM of 94% and an inhibition at 60 µM of 30%.
As for `CCCN(C)c1cc(-c2ccccc2)ncn1` [Ar=C6H5; R1=n-C3H7; R2=CH3; R3=H], the inhibition at 60 µM was 47% and the inhibition at 6 µM was found to be 39%.
For the molecule `CCCN(CCC)c1ncnc(-c2ccccc2)c1C` [Ar=C6H5; R1=n-C3H7; R2=n-C3H7; R3=CH3], the inhibition at 6 µM came to 11%.
Turning to `Nc1cc(-c2ccccc2)ncn1` [Ar=C6H5; R1=H; R2=H; R3=H, 4-amino-6-phenylpyrimidine], the inhibition at 600 µM worked out at 75% and the inhibition at 60 µM came to 65%.
`CCCN(CC)c1cc(-c2ccccc2)ncn1` [Ar=C6H5; R1=n-C3H7; R2=C2H5; R3=H, 4-(ethyl-n-propylamino)-6-phenylpyrimidine]: the inhibition at 600 µM is 99%, the inhibition at 60 µM worked out at 86% and testing at 6 µM gave an inhibition of 79%.
As to `CCc1c(-c2ccccc2)ncnc1N(CC)CC` [Ar=C6H5; R1=C2H5; R2=C2H5; R3=C2H5, 4-Diethylamino-5-ethyl-6-phenylpyrimidine Hydrochloride], the inhibition at 6 µM was 48%.
On to `CN1CCN(c2cc(-c3ccc(Cl)cc3)ncn2)CC1` [4-(4-Methyl-1-piperazinyl)-6-(p-chlorophenyl)pyrimidine hydrochloride], for which at 600 µM the inhibition was 99%, testing at 60 µM gave an inhibition of 65% and testing at 6 µM gave an inhibition of 2%.
The matching figures for `CN1CCN(c2cc(-c3ccccc3)ncn2)CC1` [4-(4-Methyl-1-piperazinyl)-6-phenylpyrimidine dihydrochloride]: 99%, 99% and 59%.
Turning to `CCCN(CCC)c1cc(-c2cccc(C(F)(F)F)c2)ncn1` [Ar=3-CF3C6H4; R1=n-C3H7; R2=n-C3H7; R3=H, 4-Di(n-propyl)amino-6-(m-trifluoromethylphenyl)pyrimidine hydrochloride], the inhibition at 600 µM was determined as 99% and at 60 µM the inhibition was 50%.
On the same counts, the results for `CCCN(CCC)c1cc(-c2cccc(NS(C)(=O)=O)c2)ncn1` are 94% and 3%.
For the molecule `CCc1c(-c2ccc(OC)cc2)ncnc1N(CC)CC` [Ar=4-CH3OC6H4; R1=C2H5; R2=C2H5; R3=C2H5], the inhibition at 6 µM came out at 42%.
As for `c1ccc(-c2cc(N3CCCCC3)ncn2)cc1` [Ar=C6H5; R1,R2=--(CH2)5--; R3=H, 4-(1-Piperidyl)-6-phenylpyrimidine hydrochloride], the inhibition at 600 µM was 94%, at 60 µM the inhibition was 61% and 6 µM produced 60% inhibition.
On to `c1ccc(-c2cc(NCc3cccnc3)ncn2)cc1` [Ar=C6H5; R1=3-picolyl; R2=H; R3=H, 4-(3-Pyridylmethylamino)-6-phenylpyrimidine dihydrochloride], for which the inhibition at 600 µM came out at 98%, the inhibition at 60 µM was 31% and the inhibition at 6 µM turned out to be 12%.
`Nc1cccc(-c2cc(N3CCCC3)ncn2)c1` [Ar=3-NH2C6H4; R1,R2=--(CH2)4--; R3=H] had an inhibition at 600 µM of 11%.
Consider `CC(C)CN(CC(C)C)c1cc(-c2ccccc2)ncn1` [Ar=C6H5; R1=i-C4H9; R2=i-C4H9; R3=H], for which the inhibition at 600 µM worked out at 35%, the inhibition at 60 µM was 24% and the inhibition at 6 µM was determined as 10%.
Molecule `CC(C)CNc1cc(-c2ccccc2)ncn1` [Ar=C6H5; R1=i-C4H9; R2=H; R3=H] displayed an inhibition at 60 µM of 82% and an inhibition at 6 µM of 17%.
Take `CN(Cc1cccnc1)c1cc(-c2ccccc2)ncn1` [Ar=C6H5; R1=3-picolyl; R2=CH3; R3=H, 4-[Methyl(3-pyridylmethyl)amino]-6-phenylpyrimidine dihydrochloride]: at 600 µM the inhibition was 99% and the inhibition at 60 µM worked out at 17%.
`CCN(CCO)c1cc(-c2ccc(OC)cc2)ncn1` came in with an inhibition at 600 µM of 90%, an inhibition at 60 µM of 71% and an inhibition at 6 µM of 55%.
With `CCCC(=O)Nc1cccc(-c2cc(N(CC)CC)ncn2)c1`, testing at 600 µM gave an inhibition of 36% and at 60 µM the inhibition was 8%.
The molecule `CCCN(CCC)c1cc(-c2cccc(N)c2)ncn1` [Ar=3-NH2C6H4; R1=n-C3H7; R2=n-C3H7; R3=H] yielded an inhibition at 600 µM of 95%, an inhibition at 60 µM of 97% and an inhibition at 6 µM of 32%.
Regarding `CN(C)CCNc1cc(-c2ccccc2)ncn1` [Ar=C6H5; R1=(CH3)2N(CH2)2; R2=H; R3=H], 600 µM produced 99% inhibition and the inhibition at 60 µM was 30%.
Molecule `CN(C)c1cc(-c2cccs2)ncn1` [Ar=2-thienyl; R1=CH3; R2=CH3; R3=H] showed an inhibition at 600 µM of 94%, an inhibition at 60 µM of 82% and an inhibition at 6 µM of 59%.
With `CCN(CC)c1ncnc(-c2ccccc2)c1C` [Ar=C6H5; R1=C2H5; R2=C2H5; R3=CH3, 4-diethylamino-5-methyl-6-phenylpyrimidine], testing at 6 µM gave an inhibition of 80%.
For `CCCCNc1cc(-c2ccccc2)ncn1` [Ar=C6H5; R1=n-C4H9; R2=H; R3=H], at 60 µM the inhibition was 42% and the inhibition at 6 µM worked out at 30%.
With `C=CCN(CC=C)c1cc(-c2cccs2)ncn1`, the inhibition at 60 µM is 50% and 6 µM produced 40% inhibition.
For `COc1ccc(-c2cc(NCC(C)C)ncn2)cc1` [Ar=4-CH3OC6H4; R1=H; R2=i-C4H9; R3=H], at 600 µM the inhibition was 76%, 60 µM produced 54% inhibition and the inhibition at 6 µM worked out at 24%.
Consider `CCN(CC)c1cc(-c2cccc(NC(=O)NC)c2)ncn1`, for which the inhibition at 600 µM is 23%.
`c1ccc(-c2cc(N3CCCCCC3)ncn2)cc1` [Ar=C6H5; R1,R2=--(CH2)6--; R3=H, 4-(1-Hexahydroazepinyl)-6-phenylpyrimidine hydrochloride] had an inhibition at 600 µM of 99%, an inhibition at 60 µM of 83% and an inhibition at 6 µM of 29%.
On the same counts, the results for `CCCN(CCC)c1cc(-c2cccs2)ncn1` [Ar=2-thienyl; R1=n-C3H7; R2=n-C3H7; R3=H] are 60%, 60% and 66%.
The molecule `CCN(CC(F)(F)F)c1cc(-c2cccs2)ncn1` [Ar=2-thienyl; R1=CF3CH2; R2=C2H5; R3=H] displayed an inhibition at 600 µM of 75%, an inhibition at 60 µM of 65% and an inhibition at 6 µM of 58%.
The molecule `CCCN(CCC)c1cc(-c2ccc(Cl)cc2)ncn1` [Ar=4-ClC6H4; R1=n-C3H7; R2=n-C3H7; R3=H, 4-Di(n-propyl)amino-6-(p-chlorophenyl)pyrimidine hydrochloride] returned an inhibition at 600 µM of 84% and an inhibition at 60 µM of 70%.

Usually inhibition stands for the percentage by which the read-out fell short of the control.
